Experiments:
[1] = target: CHK-1 kinase (Homo sapiens (Human), UniProt O14757); assay: CHK-1 Kinase Assay (Z-LYTE based TR-FRET); format: biochemical; conditions: for inhibition at 0.1 µM: 0.1 μM compound, read-out: % Inhibition of CHK-1 enzyme activity @ 0.1 μM; for inhibition at 1 µM: 1 μM compound, read-out: % Inhibition of CHK-1 enzyme activity @ 1 μM; for inhibition at 5 µM: 5 μM compound, read-out: % Inhibition of CHK-1 enzyme activity @ 5 μM
Procedure: IC50 values of compounds for inhibition of CHK-1 kinase or percent inhibition at defined concentrations were determined by Z-LYTE™ based TR-FRET assay. Kinase reactions were performed in a 10 μL volume in low-volume 384-well plates. The concentration of substrate (Ser Thr 19) was maintained at 2 μM in the assay, and the kinase reaction buffer consisted of 50 mM HEPES pH 7.5, 0.01% BRIJ-35, 10 mM MgCl2, 1 mM EGTA, 2 mM DTT. Serially diluted compounds (3-fold) in DMSO (0.5% in final reaction) were incubated with cocktail of CHK-1 kinase (5 ng/ml; Cat #P3040, ThermoFisher), substrate Ser Thr 19, (2 μM; Cat #PV4529, ThermoFisher), ATP (53 μM; Cat #PV3227, ThermoFisher) and buffer. Kinase reactions were allowed to proceed for 1 hour at room temperature after which 5 μL of a 1:256 dilution of Development Reagent A was added. The plate was allowed to incubate at room temperature for 60 minutes before being read on a BMG Pherastar plate reader using the Z-LYTE™ filter block for Z-LYTE™ TR-FRET. The resulting TR-FRET emission ratio was used to calculate percent inhibition by normalizing with the control using the following formula: — [% Inhibition=1−{(% Phosphorylationsample/% Phosphorylationcontrol (0% Inhibition)}·100] For calculation of IC50, the percent inhibition obtained was plotted against the concentration of inhibitor, and the data was fit to a sigmoidal dose-response curve with a variable slope. The IC50 was calculated from the curve.

[2] = system: A549; assay: Cell viability assay (resazurin), A549; format: cell-based; conditions: Homo sapiens; A549 lung epithelial carcinoma cells
Procedure: (§1) Protocol for Cell Viability Assay in Different Cell Lines for CHK-1 Inhibitors:
(§2) Cells were allowed to grow at 37° C. for 24 hr (adherent cells) in 5% CO2 (culture conditions) in a Nuaire incubator (humidified). Following 24 hr (adherent cells), serially diluted compounds (100 μl) were added to the culture plate (immediately after plating in case of suspension cells) and the cultures were further incubated in culture conditions for 72-144 hr depending on the cell type. Experiment was terminated at the completion of respective incubation with drug by replacing the medium with 100 μl of 1 mM of resazurin (R7017; Sigma) prepared in culture medium and the plates were further incubated in culture conditions for 4 hr. In case of 144 hr incubation with the drug, the drug was replenished once with fresh medium after 72 hr. Fluorescence was then measured using a multimodal plate reader (Biotek Synergy Neo) at an excitation wavelength of 535 nm and emission wavelength of 590 nm to obtain relative fluorescence units. Data analysis was done by subtracting the background fluorescence (only medium blank) value from each reading and then normalizing with the vehicle control (DMSO treated cells) to obtain percent survival/proliferation. Percent survival at different doses was used to calculate IC50 by fitting the curve to the “four-parameter variable slope logistic model” using Prism Graph Pad.

[3] = system: AsPC-1; assay: Cell viability assay (resazurin), AsPC-1; format: cell-based; conditions: Homo sapiens, ASPC1; AsPC-1 pancreatic cancer cells
Procedure: as §1, §2

[4] = system: HCT116; assay: Cell viability assay (resazurin), HCT116; format: cell-based; conditions: Homo sapiens, HCT-116; HCT116 colorectal carcinoma cells
Procedure: as §1, §2

[5] = system: MDA_MB-231; assay: Cell viability assay (resazurin), MDA_MB-231; format: cell-based; conditions: Homo sapiens, MDA-MB-231; MDA_MB-231 TNBC cells
Procedure: as §1, §2

[6] = system: MiaPaCa-2; assay: Cell viability assay (resazurin), MiaPaCa-2; format: cell-based; conditions: Homo sapiens, MIA PaCa-2; MiaPaCa-2 pancreatic cancer cells
Procedure: as §1, §2

[7] = system: THP1; assay: Cell viability assay (resazurin), THP1; format: cell-based; conditions: Homo sapiens, THP-1; THP1 peripheral blood cells
Procedure: as §1, §2

[8] = system: HT-29; assay: Cell viability assay (resazurin), HT-29; format: cell-based; conditions: Homo sapiens; HT-29 colon cancer cells
Procedure: as §1, §2

[9] = system: MV-4-11; assay: Cell viability assay (resazurin), MV-4-11; format: cell-based; conditions: Homo sapiens, MV4-11; MV-4-11 peripheral blood cells
Procedure: as §1, §2

[10] = target: CHK-2 kinase (Homo sapiens (Human), UniProt O96017); assay: CHK-2 Kinase Assay (Z-LYTE based TR-FRET); format: biochemical; conditions: for inhibition at 0.1 µM: 0.1 μM compound, read-out: % Inhibition of CHK-2 enzyme activity @ 0.1 μM; for inhibition at 1 µM: 1 μM compound, read-out: % Inhibition of CHK-2 enzyme activity @ 1 μM
Chain of CHK-2 kinase (O96017 whole entry): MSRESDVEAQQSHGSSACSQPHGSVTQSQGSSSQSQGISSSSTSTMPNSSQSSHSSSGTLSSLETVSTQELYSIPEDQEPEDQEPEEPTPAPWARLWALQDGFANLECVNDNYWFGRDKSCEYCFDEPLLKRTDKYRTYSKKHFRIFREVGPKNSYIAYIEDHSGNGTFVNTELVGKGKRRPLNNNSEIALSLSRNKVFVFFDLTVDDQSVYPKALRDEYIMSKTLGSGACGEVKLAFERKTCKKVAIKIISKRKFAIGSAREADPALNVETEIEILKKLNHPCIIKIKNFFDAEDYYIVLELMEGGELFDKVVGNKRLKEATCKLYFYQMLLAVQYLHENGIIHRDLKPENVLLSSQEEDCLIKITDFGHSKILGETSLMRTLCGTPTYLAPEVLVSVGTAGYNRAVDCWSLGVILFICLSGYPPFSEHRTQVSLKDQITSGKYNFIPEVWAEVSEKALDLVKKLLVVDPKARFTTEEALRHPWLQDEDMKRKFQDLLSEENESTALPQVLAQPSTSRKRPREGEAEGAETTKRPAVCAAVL
Procedure: IC50 values of compounds for inhibition of CHK-2 kinase or percent inhibition at defined concentrations were determined by Z-LYTE™ based TR-FRET assay. Kinase reactions were performed in a 10 μL volume in low-volume 384-well plates. The concentration of substrate (Ser Thr 07) was maintained at 1 μM in the assay, and the kinase reaction buffer consisted of 50 mM HEPES pH 7.5, 0.01% BRIJ-35, 10 mM MgCl2, 1 mM EGTA. Serially diluted compounds (3-fold) in DMSO (0.5% in final reaction) were incubated with cocktail of CHK2 kinase (5 ng/ml; Cat #PV3367, ThermoFisher), substrate Ser Thr 07, (1 μM; Cat #PV3208, ThermoFisher), ATP (84 μM; Cat #PV3227, ThermoFisher) and buffer. Kinase reactions were allowed to proceed for 1 hour at room temperature after which 5 μL of a 1:45000 dilution of Development Reagent A was added. The plate was allowed to incubate at room temperature for 60 minutes before being read on a BMG Pherastar plate reader using the Z-LYTE™ filter block for Z-LYTE™ TR-FRET.
The resulting TR-FRET emission ratio was used to calculate percent inhibition by normalizing with the control using the following formula: — [% Inhibition=1−{(% Phosphorylationsample/% Phosphorylationcontrol (0% inhibition)}·100]
For calculation of IC50, the percent inhibition obtained was plotted against the concentration of inhibitor, and the data was fit to a sigmoidal dose-response curve with a variable slope. The IC50 was calculated from the curve.

[11] = system: Panc-10.05; assay: Cell viability assay (resazurin), Panc-10.05; format: cell-based; conditions: Homo sapiens, Panc1005; Panc-10.05 cells
Procedure: as §1, §2

Chain of CHK-1 kinase (O14757 whole entry): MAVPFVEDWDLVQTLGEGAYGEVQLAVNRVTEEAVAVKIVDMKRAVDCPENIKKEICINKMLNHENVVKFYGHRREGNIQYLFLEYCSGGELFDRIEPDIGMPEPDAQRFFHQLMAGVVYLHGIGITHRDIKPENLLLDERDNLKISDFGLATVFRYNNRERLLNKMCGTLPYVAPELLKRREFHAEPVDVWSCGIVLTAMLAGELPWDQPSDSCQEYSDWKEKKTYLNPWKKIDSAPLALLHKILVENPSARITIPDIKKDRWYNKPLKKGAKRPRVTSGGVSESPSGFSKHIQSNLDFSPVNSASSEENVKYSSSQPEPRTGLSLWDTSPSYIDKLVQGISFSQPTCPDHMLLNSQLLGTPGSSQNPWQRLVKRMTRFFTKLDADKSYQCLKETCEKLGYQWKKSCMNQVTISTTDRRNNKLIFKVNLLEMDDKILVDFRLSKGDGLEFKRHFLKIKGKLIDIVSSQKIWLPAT

inhibition at 0.1 µM [1] [%] | inhibition at 1 µM [1] [%] | inhibition at 5 µM [1] [%] | IC50 [2] [µM] | IC50 [3] [µM] | IC50 [4] [µM] | IC50 [6] [µM] | IC50 [7] [µM] | IC50 [8] [µM] | IC50 [9] [µM] | IC50 [1] [µM] | inhibition at 0.1 µM [10] [%] | inhibition at 1 µM [10] [%] | IC50 [11] [µM] | Structure (SMILES) | IC50 [5] [µM]
86 | 100 | 100 | > 30 | 11.6 | 17.2 | 10.2 | 6.23 | 14.5 | 5.38 | – | – | – | – | CNC(=O)c1nnc(Nc2cnc(C#N)cn2)cc1NC[C@H]1CNCCO1 (stereo in doubt) [1.35, 6-(5-cyanopyrazin-2-ylamino)-N-methyl-4-(morpholin-2-ylmethylamino)pyridazine-3-carboxamide] | 15.5
– | – | – | – | – | – | > 30 | > 30 | > 30 | – | – | – | – | – | N#Cc1cnc(Nc2cc(NCC3CNCCO3)c(C(F)(F)F)nn2)cn1 (stereo not drawn) [1.7, 2-((6-(5-cyanopyrazin-2-ylamino)-3-(trifluoromethyl)pyridazin-4-ylamino)methyl)morpholin-4-ium 2,2,2-trifluoroacetate] | –
– | 15 | 32 | – | – | > 30 | – | – | – | – | – | – | – | – | N#Cc1cnc(Nc2cc(NCC3CCNCC3)c(-c3ccccc3)nn2)cn1 [1.1, 5-((6-phenyl-5-((piperidin-4-ylmethyl)amino)pyridazin-3-yl)amino)pyrazine-2-carbonitrile] | –
77 | 96 | 99 | > 30 | 13.2 | 27.9 | 10.8 | 9.79 | 16.9 | 7 | – | – | – | – | CNC(=O)c1nnc(Nc2cnc(C#N)cn2)cc1NC[C@@H]1CNCCO1 (stereo in doubt) [1.34, 6-(5-cyanopyrazin-2-ylamino)-N-methyl-4-(morpholin-2-ylmethylamino)pyridazine-3-carboxamide] | 12.4
– | 93 | 98 | > 30 | > 30 | > 30 | > 30 | > 30 | > 30 | – | 0.092 | 12.1 | 36.7 | > 30 | N#Cc1cnc(Nc2cc(NCC3CCNCC3)c(C(N)=O)nn2)cn1 [1.3, 6-((5-cyanopyrazin-2-yl)amino)-4-((piperidin-4-ylmethyl)amino)pyridazine-3-carboxamide] | > 30
91 | 100 | 100 | 11.4 | 6.41 | 17.2 | 13.4 | 4.24 | 14.9 | 5.4 | – | – | – | – | CNC(=O)c1nnc(Nc2cnc(C#N)cn2)cc1NCC1CNCCO1 (stereo not drawn) [1.11, 6-(5-cyanopyrazin-2-ylamino)-N-methyl-4-(morpholin-2-ylmethylamino)pyridazine-3-carboxamide] | 13
– | 96 | 100 | > 30 | > 30 | > 30 | > 30 | > 30 | > 30 | – | 0.07 | 8.28 | 30 | > 30 | N#Cc1cnc(Nc2cc(NCC3CNCCO3)c(C(N)=O)nn2)cn1 (stereo not drawn) [1.2, 6-((5-cyanopyrazin-2-yl)amino)-4-((morpholin-2-ylmethyl)amino)pyridazine-3-carboxamide] | > 30
63 | 96 | 98 | – | 12.9 | – | 23.2 | 11.7 | > 30 | – | – | – | – | – | N#Cc1cnc(Nc2cc(NCC3CNCCO3)c(C(=O)NC3CC3)nn2)cn1 (stereo not drawn) [1.12, 6-(5-cyanopyrazin-2-ylamino)-N-cyclopropyl-4-(morpholin-2-ylmethylamino)pyridazine-3-carboxamide] | –
